The record followed here is patent US5712367A, “Process for the solubilization of peptides and process for peptide synthesis” (Rhone-Poulenc Chimie, priority 1989, dated 1998).

Some results are limits rather than exact numbers.

Format in all cases: physicochemical
A short description of data set [1]: Measurement of the solubilities of the molecules of formula (L)-seryl-A--L in water. The following applies: measured in the filtrate after grinding in water for 15 minutes. As to the method: Ammonia gas was passed into this solution at room temperature. The ammonium chloride precipitate obtained was rapidly filtered off. […] The product obtained after concentration was immediately ground in water for 15 minutes at room temperature and then filtered off.
The solubility of the product of formula (L)-seryl-A--L was measured in the filtrate.

Data set [2] is described as follows: Partition coefficient of N-tert-butyloxycarbonylpentaglycine esters between CH2Cl2 and H2O.
A short description of data set [3]: Solubility of N-tert-butyloxycarbonylpentaglycine esters (CH3)3COCO(NHCH2CO)5OR in anisole, CH2Cl2 and H2O. The following applies: for Solubility in g/100 cm^3 CH2 Cl2: solvent CH2Cl2; for Solubility in g/100 cm^3 H2 O: solvent H2O; for Solubility in g/100 cm^3 anisole: solvent anisole.

`N[C@@H](CO)C(=O)OCc1ccccc1` [L-Serine benzyl ester]: in data set [1], the “solubility in water at 25° C.” value was more than 100 mg/mL.

As for `CC(C)(C)OC(=O)NCC(=O)NCC(=O)NCC(=O)NCC(=O)NCC(=O)OCc1cccc(C(=O)OCc2cccc(Oc3ccccc3)c2)c1` [Example R2], in data set [2], the “Partition coefficient between CH2 Cl2 and H2 O” value was > 2,000. Also, in data set [3], the “Solubility in g/100 cm^3 CH2 Cl2” value is on record as more than 10 g/100 cm^3, the “Solubility in g/100 cm^3 H2 O” value is on record as 0.0008 g/100 cm^3 and the “Solubility in g/100 cm^3 anisole” value was determined as 5 g/100 cm^3.

As to `CC(C)(C)OC(=O)NCC(=O)NCC(=O)NCC(=O)NCC(=O)NCC(=O)OCc1cccc(C(=O)OCc2ccc(-c3ccccc3)cc2)c1` [Example R1], in data set [2], the “Partition coefficient between CH2 Cl2 and H2 O” value was > 1,000. Moreover, in data set [3], the “Solubility in g/100 cm^3 CH2 Cl2” value is more than 10 g/100 cm^3, the “Solubility in g/100 cm^3 H2 O” value is 0.0016 g/100 cm^3 and the “Solubility in g/100 cm^3 anisole” value is listed as 5 g/100 cm^3.

Take `COC(=O)CNC(=O)CNC(=O)CNC(=O)CNC(=O)CNC(=O)OC(C)(C)C` [CH3]: the “Partition coefficient between CH2 Cl2 and H2 O” value in data set [2] came to 0.66. Further, in data set [3], the “Solubility in g/100 cm^3 CH2 Cl2” value worked out at 0.33 g/100 cm^3, the “Solubility in g/100 cm^3 H2 O” value came to 0.50 g/100 cm^3 and the “Solubility in g/100 cm^3 anisole” value is on record as “insoluble”.

`CC(C)(C)OC(=O)NCC(=O)NCC(=O)NCC(=O)NCC(=O)NCC(=O)OCc1ccccc1` [benzyl]: the “Partition coefficient between CH2 Cl2 and H2 O” value in data set [2] was found to be 4.1. For the same compound, in data set [3], the “Solubility in g/100 cm^3 CH2 Cl2” value is given as 0.070 g/100 cm^3, the “Solubility in g/100 cm^3 H2 O” value is recorded as 0.017 g/100 cm^3 and the “Solubility in g/100 cm^3 anisole” value was “insoluble”.
